Here are results for three compounds from EP0614887B1, “Indole-sulfonamides as antitumor agents” (ELI LILLY AND COMPANY, priority 1993, dated 1994).

Data set [1] concerns 6C3HED lymphosarcoma. The experiment in a line: Antitumor activity in mice bearing allograft 6C3HED lymphosarcoma, oral dosing. It counts as in vivo, C3H mice. The conditions noted are these: 6C3HED tumor, daily for 8 days; for Percent Inhibition: inhibition of tumor growth vs control; for Toxic/Total: mice which died / total animals in group. The text has this: Another tumor model employed C3H mice bearing the widely used allograft 6C3HED lymphosarcoma, also known as the Gardner lymphosarcoma (GLS). The 6C3HED lymphosarcoma was obtained from the Division of Cancer Treatment, National Cancer Institute, Tumor Bank, maintained at E. G. and G. Mason Research (Worcester, Massachusetts).
(§1) First passage tumors were stored in liquid nitrogen, using standard techniques. The transplanted tumor was reestablished from the Tumor Bank every six months or as needed. The tumor was maintained by serial passage twice weekly in the host mice.
(§2) In the procedures utilized here, the tumor was removed from passage animals and minced into cubic fragments having 1 to 3 mm edges using sterile techniques. Tumor pieces were checked for sterility using both Antibiotic Medium 1 and Brain Heart Infusion (Difco, Detroit, Michigan). The xenograft tumor pieces were implanted into the recipient CD1 Nu/Nu mice subcutaneously in an axillary site by trochar. The allograft 6C3HED tumor pieces were implanted into the recipient C3H mice in an analogous fashion.
(§3) Drug therapy on the appropriate schedule was initiated seven days after tumor implantation for the mice bearing the xenograft tumors, one day after implantation for the mice bearing the 6C3HED lymphosarcoma. The compound being tested was mixed with 2.5% Emulphor EL620 from GAF Corporation (1:40 dilution in 0.9% saline). The total dosage volume for each administration was 0.5 ml. All animals were weighed at the beginning and end of administration of the subject compounds. Food and water were provided ad libitum.
(§4) Each control group and each dosage level of the treated groups consisted of 9 or 10 mice selected at random from the pool of implanted animals. The formulations were administered orally by gavage with the use of an 18-gauge needle. Compounds were dosed daily for 10 days for the studies using the human tumor xenografts and 8 days for the studies using the allograft.
(§5) The tumor was measured five days after treatment ended with two dimensional measurements (width and length) of the tumor taken using digital electronic calipers interfaced to a microcomputer. J.F. Worzalla, et al., Investigational New Drugs, 8:241-251 (1990). Tumor weights were calculated from these measurements using the following formula: Tumor weight (mg) =[…] [formula] At least one control group of an equal number of mice was treated with the same volume of 2.5% Emulphor only. The percent inhibition is determined by subtracting the ratio of the mean tumor size of the test group relative to the control group from one and multiplying the result by 100.
(§6) The results of several experiments in mice bearing the VRC5 human colon adenocarcinomas, and the 6C3HED lymphosarcoma when the Formula I compounds were administered orally are provided in Table I. In the table, Column 1 refers to the example number of the compound tested; Column 2 describes the particular human tumor xenograft or mouse allograft being studied; Column 3 gives the dosage level of the compound of Formula I in milligrams per kilogram of body weight; Column 4 describes the percent inhibition of tumor growth; and Column 5 tallies the number of mice which died during the course of the experiment relative to the total number of animals in the group.

Data set [2] concerns VRC5 human colon adenocarcinomas. The experiment in a line: Antitumor activity in mice bearing human colon xenograft VRC5, oral dosing. It counts as in vivo, CD1 Nu/Nu mice. The note with it: VRC5 tumor, daily for 10 days; for Percent Inhibition: inhibition of tumor growth vs control; for Toxic/Total: mice which died / total animals in group.
From the text: One of the tumor models used for showing the anti-neoplastic activity of the sulfonylureas of this invention was the human colon xenograft VRC5. J.A. Houghton and D.M. Taylor, British Journal of Cancer, 37:213-223 (1978). This tumor was obtained from St. Jude's Children's Research Hospital and has been widely used as a human tumor model.
as §1, §2, §3, §4, §5, §6
In general terms: Xenograft models place foreign cells or tissue in a host animal.

Regarding `O=C(Nc1ccc(Cl)cc1)NS(=O)(=O)c1ccc2c(c1)CCN2` [Example 1, N-[[(4-chlorophenyl)amino]carbonyl]-2,3-dihydro-1H-indole-5-sulfonamide], the “Percent Inhibition” value in data set [1] (280 mg/kg orally by gavage) is recorded as 44%. The Toxic/Total in data set [1] (280 mg/kg orally) is reported as 0/9.
In the case of `O=C(Nc1ccc(Cl)c(Cl)c1)NS(=O)(=O)c1ccc2c(c1)CCN2` [Example 2, N-[[(3,4-dichlorophenyl)amino]carbonyl]-2,3-dihydro-1H-indole-5-sulfonamide], the “Percent Inhibition” value in data set [2] (20 mg/kg orally by gavage) was 18%; in data set [2] (40 mg/kg orally by gavage), 56%; in data set [1] (450 mg/kg orally by gavage), 100%; in data set [1] (900 mg/kg orally by gavage), 100%. The Toxic/Total in data set [2] (20 mg/kg orally) was 0/9; in data set [2] (40 mg/kg orally), 0/9; in data set [1] (450 mg/kg orally), 0/10; in data set [1] (900 mg/kg orally), 1/10.
Turning to “N-[[(3,4-dichlorophenyl)amino]carbonyl]-1-methyl-1H-indole-5-sulfonamide [Example 3]”, the entries for the “Percent Inhibition” value in data set [2] (20 mg/kg orally by gavage), in data set [2] (40 mg/kg orally by gavage) and in data set [2] (80 mg/kg orally by gavage) were 81%, 95% and 100%, respectively. Further, the Toxic/Total in data set [2] (20 mg/kg orally) was 1/9; in data set [2] (40 mg/kg orally), 1/10; in data set [2] (80 mg/kg orally), 0/10.
